Measured values: US6440691B1, “Melanins with improved ability to inhibit HIV replication” (Large Scale Biology Corporation, priority 1997, dated 2002)
Where a SMILES comes first, the peptide text is derived from it.

Tests used:
HIV-1 IIIB = experiment: Anti-HIV activity: protection of MT-2 cells from viral-induced cytopathic effect, neutral red uptake; type: cell-based; settings: Table 2, CPE after three days
Description: Dried melanins were analyzed for anti-HIV activity essentially as described by Montefiori, et al., 1988, J. Clin. Microbiol. […] In brief, the antiviral activities of the various melanins and melanin derivatives described in the present examples were measured in 96-well microdilution plates. Two-fold serial dilutions of melanins were made in triplicate in a total of 100 μl growth medium (RPMI-1640 containing 12% host-inactivated fetal bovine serum and 50 μg gentamicin/ml) per well. MT-2 cells (5×10^4) in 100 μl of growth medium were added to each well and incubated for 10 minutes. Fifty microliters of virus (5×10^4 TCID50/50 μl) were then added to all wells except for one row of eight noncytopathic control wells; these received growth medium in place of virus. Viral-induced cytopathic effect (CPE) was quantified three days later by vital dye (neutral red) uptake in remaining viable cells. Neutral red uptake is a linear function of cell viability with A540 of 0.025 to 0.85 corresponding to 2×10^4 to 25×10^4 viable cells/well (Montefiori, et al., 1988). Percent protection is defined as the difference in A540 between test wells (cells+melanin+virus) and virus control wells (cells+virus) divided by the difference in between cell control wells (cells only) and virus control wells.

HIV-2 (ROD) = test system: HIV-2 (ROD); parameters: unit not given here; settings: Table 1; cited from earlier work
HIV-1 (111a) = test system: HIV-1 (111a); parameters: unit not given here; settings: Table 1; cited from earlier work

| Compound | Effective Dose 50 EC50 (HIV-1 IIIB) | 50% inhibitory concentration IC50, HIV-2 (ROD) (HIV-2 (ROD)) | 50% inhibitory concentration IC50, HIV-1 (111a) (HIV-1 (111a)) |
| --- | --- | --- | --- |
| NCC(=O)N[C@@H](Cc1ccc(O)cc1)C(=O)O [Gly-Tyr] (H-Gly-Tyr-OH) | >50 µg/mL | – | – |
| ã-cyclodextrin octasulfate | – | 1.6 | 0.6 |
| ã-cyclodextrin hexadecasulfate | – | 0.4 | 0.2 |
| â-cyclodextrin heptasulfate | – | 1.8 | 3.0 |
| á-cyclodextrin tetradecasulfate | – | 1.0 | 0.8 |
| á-cyclodextrin hexasulfate | – | 1.9 | 26.2 |
